Assay results from ChEMBL document CHEMBL5331084, “Structure-based lead optimization of peptide-based vinyl methyl ketones as SARS-CoV-2 main protease inhibitors” (Eur J Med Chem, 2023).

What follows are compounds tested on SARS-CoV-2 (assay: microbe, parasite or virus in culture). Conditions: Severe acute respiratory syndrome coronavirus 2, Munich 929, Huh-7.
For CC(=O)/C=C/[C@H](C[C@@H]1CCNC1=O)NC(=O)[C@H](CC1CCCCC1)NC(=O)OCc1ccccc1, the EC50 was 1800 nM.
With CC(=O)/C=C/[C@H](C[C@@H]1CCNC1=O)NC(=O)[C@H](CC1CC1)NC(=O)OCc1ccccc1 the EC50 was 1500 nM.
In the case of CCCC[C@H](NC(=O)OCc1ccccc1)C(=O)N[C@H](/C=C/C(C)=O)C[C@@H]1CCNC1=O, the EC50 is reported as 18500 nM.
